Experimental data reported in US8410168B2, “Methods and compositions for treating ophthalmic conditions with retinyl derivatives” (Acucela, Inc., priority 2004, dated 2013).
pIC50, pKi: −log10 of the molar value.

How the values were obtained:
LRAT [1] = molecular target: T1, LRAT (Bos taurus, UniProt Q9BGL2); experiment: In vitro LRAT assay, retinyl ester synthesis by bovine RPE membranes/microsomes; format: biochemical
T1 construct: bovine RPE microsomes are used as an enzyme source; from tissue; host or cells: bovine retinal pigment epithelium (membranes / microsomes)
T1 sequence (Q9BGL2 1-230): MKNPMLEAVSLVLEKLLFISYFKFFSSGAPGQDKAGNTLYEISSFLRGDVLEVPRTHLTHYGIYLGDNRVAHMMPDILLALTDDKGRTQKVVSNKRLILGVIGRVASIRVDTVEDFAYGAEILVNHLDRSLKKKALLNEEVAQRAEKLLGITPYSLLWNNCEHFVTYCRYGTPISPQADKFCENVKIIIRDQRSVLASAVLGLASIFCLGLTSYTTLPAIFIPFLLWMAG
Description: We examined the effects on HPR on enzymes or proteins of the visual cycle using in vitro biochemical assays. Specifically, the utilization of exogenous all-trans retinol by membranes prepared from bovine RPE was studied. […] Steady-state levels of HPR in the RPE (determined from mice which have been given 20 mg/kg HPR, i.p., daily for 28 days) range from 5-10 μM. With this in mind, we examined the effects of 10 μM HPR on production of all-trans retinyl esters and 11-cis retinol in assays similar to those described above. […] In the presence of endogenous retinoids, utilization of exogenous all-trans retinol is extremely low and 11-cis retinol is produced solely from the endogenous all-trans retinyl esters. […] Thus, the retinoic acids appear to affect at least two targets in the visual cycle. We have determined that HPR-induced reduction of 11-cis retinol biosynthesis occurs via LRAT inhibition and reduction in all-trans retinyl ester levels. In this situation, the isomerase enzyme is starved for substrate and 11-cis retinol production declines.
A second target for HPR in the visual cycle was identified using in vitro biochemical assays. Lecithin retinol acyl transferase (LRAT) catalyzes the conversion of retinol into retinyl esters. LRAT is critical not only for retinol-retinyl ester homeostasis but also for generation of substrate for visual chromophore biosynthesis. The data shown in panel A of FIG. 16 illustrate the inhibitory effect of HPR on the rate of retinyl ester synthesis. In this assay, bovine RPE microsomes are used as an enzyme source and all-trans retinol (atROL) is the substrate. […] A secondary transformation (Eadie-Hofstee) of the kinetic data in panel A reveal that the mode of inhibition is competitive (see FIG. 16, panel B). Therefore, HPR competes with atROL for binding sites on LRAT. The apparent inhibition constant (Ki) was determined to be ˜6 μM. This means that at 6 μM HPR, the rate of retinyl ester synthesis would be decreased by 50%. In a separate study, we have determined that HPR concentrations in the RPE approach 10 μM with a 10 mg/kg dose of HPR.

apo-CRALBP = molecular target: T2, apo-CRALBP (Homo sapiens, UniProt P12271); experiment: Ni+ affinity column and spectroscopic analysis of binding to CRALBP; details: 10 μM apo-CRALBP, 20 μM ligand
T2 construct: made in house
T2 sequence (P12271 whole entry, species assumed): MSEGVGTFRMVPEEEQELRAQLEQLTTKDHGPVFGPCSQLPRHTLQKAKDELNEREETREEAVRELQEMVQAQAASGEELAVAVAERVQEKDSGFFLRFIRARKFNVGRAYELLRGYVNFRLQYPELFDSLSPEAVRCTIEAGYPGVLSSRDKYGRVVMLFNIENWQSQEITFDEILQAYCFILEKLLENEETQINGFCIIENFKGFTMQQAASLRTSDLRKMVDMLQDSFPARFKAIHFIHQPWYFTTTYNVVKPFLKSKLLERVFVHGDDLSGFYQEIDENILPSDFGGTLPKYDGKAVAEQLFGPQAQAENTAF
Description: In order to confirm data obtained during fluorescence analysis of HPR binding to CRALBP, a second analysis was performed using affinity chromatography and spectroscopic analysis. The recombinant apo-CRALBP was constructed with a histidine tag which is utilized to purify the protein on a Ni+ affinity column following expression cloning. Here, we utilized this feature of apo-CRALBP to specifically “trap” the protein and any protein-ligand species for spectroscopic analysis. Two binding mixtures were prepared containing apo-CRALBP (10 μM) and either 11cRAL (20 μM) or HPR (20 μM). In control experiments for the analysis of non-specific ligand binding onto the affinity matrix, we prepared two additional mixtures containing only 11cRAL (20 μM) or HPR (20 μM) in binding buffer. The binding mixtures were passed through separate Ni+ affinity columns and the columns were washed extensively to elute unbound protein and ligand. Following the addition of elution buffer, the eluted fractions were analyzed by spectroscopy. […] Instead, two absorption maxima are seen: one at 280 nm and a second at 360 nm, which is attributable to the absorption of HPR (see FIG. 14).

abca4 null mutant mice = experiment: A2PE-H2 and A2E as a function of HPR dose, 28 days; format: in vivo, mouse; details: HPR daily for 28 days, several doses
Description: Group averages from the data shown in panels A-G of FIG. 18 in Example 25 (28 day time points) are plotted to illustrate the strong correlation between increases in serum HPR and decreases in serum retinol (see FIG. 12). Reductions in serum retinol are highly correlated with reductions in A2E and precursor compounds (A2PE-H2). A pronounced reduction in A2PE-H2 in the 2.5 mg/kg dosage group (˜47%) is observed when the serum retinol reduction is only 20%. The reason for this disproportionate reduction is related to the inherently lower ocular retinoid content in this group of 2-month old animals compared to the other groups. It is likely that if these animals had been maintained on the 2.5 mg/kg dose for a more prolonged period, a greater reduction in A2E would also be realized.
ABCA4 null mutant mice were given the indicated dose of HPR in DMSO or DMSO alone daily for 28 days (n=16 mice per treatment group). At study onset, mice in the 2.5 mg/kg group were 2 months of age, mice in the other treatment groups were 3 months of age. At the indicated times, representative mice were taken from each group (n=4) for analysis of A2E precursor compounds (see FIG. 18, A2PE-H2, panels A, C and E) and A2E (see FIG. 18, panels B, D and F). […] Sample extracts were analyzed by LC. […]

[2] = system: patients with a variety of cancers; details: human patients; cited from earlier work
LRAT [3] = molecular target: T3, LRAT (Homo sapiens, UniProt O95237); details: cited from earlier work
T3 construct: host or cells: membranes from liver and small intestine
T3 sequence (O95237 1-230): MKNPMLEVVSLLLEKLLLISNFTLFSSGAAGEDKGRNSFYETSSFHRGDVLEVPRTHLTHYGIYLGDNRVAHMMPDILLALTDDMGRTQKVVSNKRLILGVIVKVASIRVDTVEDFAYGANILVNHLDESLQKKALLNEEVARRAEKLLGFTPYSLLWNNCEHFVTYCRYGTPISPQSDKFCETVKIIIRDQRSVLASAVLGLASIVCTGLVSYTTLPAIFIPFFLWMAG

## CC1=C(/C=C/C(C)=C/C=C/C(C)=C/C(=O)Nc2ccc(O)cc2)C(C)(C)CCC1 [HPR, N-(4-hydroxyphenyl)retinamide]
LRAT [1]; Eadie-Hofstee transformation
  mode of inhibition of LRAT: competitive
LRAT [1]; bovine RPE microsomes, atROL substrate
  net retinyl ester synthesis: decreases net retinyl ester synthesis in a concentration-dependent manner
LRAT [1]; bovine RPE microsomes, atROL substrate, read-out: apparent inhibition constant (Ki), LRAT
  pKi: ~5.22
LRAT [1]; membranes from bovine RPE, exogenous all-trans retinol, read-out: half-maximal inhibition of LRAT
  pIC50: ~4.70
apo-CRALBP
  binding to apo-CRALBP by absorption spectra of eluted fraction: binds apo-CRALBP
abca4 null mutant mice
  A2PE-H2 and A2E during the study period: dose-dependent reductions
[2]
  plasma concentration after high fat meals versus carbohydrate meals: three times greater
LRAT [3]
  LRAT activity in membranes prepared from liver and small intestine: marked inhibition
